Tested on: αSyn
Assay: αSyn split NanoBit luciferase (Nluc) oligomerization assay
Format: biochemical, human
Details: 100 μM compound, 10 μM of each tagged αSyn; for activity in NanoBit complementation αSyn oligomerization assay: full time-course
Method: Ten μM αSyn-LgBiT, 10 μM αSyn-SmBiT, and Hsp70 (at 0, 10, or 30 μM), 1 mM MgCl2 and 1 mM ADP were mixed in PBS at pH 7.4 and incubated at 37° C. in a thermal cycler (BioRad DNA Engine PTC-200). At 0, 3, 6, 12 and 24 hours. The NanoBit luciferase activity was quantified using a NanoFuel® GLOW Assay for Oplophorus Luciferases (NanoLight) according to the manufacturer's instructions and read on SpectraMax L Microplate Reader (Molecular Devices) with an 8 minute delay after the addition of substrate and 1 sec integration time reading each well. The luciferase activity was normalized to the reaction without Hsp70 at 24 hour time point.
• 1. αSyn-LgBiT or LgBiT is mixed with αSyn-SmBiT at 10 μM of each (PBS pH 7.4); • 2. Incubate at 37 degree for 24 hours in PCR machine; • 3. Take 10 μL samples at 0/3/6/12/24 hours; • 4. Luminescence measurement is done using Luminometor (with injector) using h-CTZ (40 uM), 2 sec delay, 3 sec integration. Protocol: • 1. αSyn-LgBiT (10 uM) and αSyn-SmBiT (10 uM) are mixed in PBS buffer (pH 7.4); • 2. The reaction mixture is incubated in 37° C. incubator either being shaken (1000 rpm) or still; • 3. Samples are taken from the reaction at 0/3/12/24/36/48/72/96/120/144 h for ThT and Nluc assays; NLuc Assay:
• 1. Mix fusion proteins in PBS buffer (pH 7.4) to create the following three master mixes:
• 2. Dispense 10 μL protein master mix into 384-well plate (Greiner, 781904) using Mantis; • Col 1 & 23: Positive control • Col & 24: Negative control • Col 3-22: Reactions • 3. […] Seal plates using sticky foil (E&K Scientific T790080); • 5. Incubate the sealed plates at 37° C. with heat blocks above and beneath the sealed plates, use dummy plates around the reaction plate, incubate at 37° C. incubator in room N401 for 0-24 h; Day 2. I. Prepare the Plates and Substrate • 6. Cool the plates at room temp for 30 min after 24-hour incubation; • 7. Spin the plates at 500×g for 1 min; • 8. Make substrate mix (NanoLight Cat #325), keep it in darkness; II. Prepare the Plate Reader • 9. Turn on SpectraMaxL, make sure the aperture is in the right position (96/384 well):
To change: Control>Change Aperture>Lift the top panel>Press down the button and turn it to the right position>Put the panel down • 10. Put the P-injector tube into the H2O bottle, wash the injector: Control>Prime P-injector for 30× injections • 11. Remove the P-injector and leave it in the air, then empty the injector: Control>Prime P-injector for 30× injections; • 12. Put the P-injector from the substrate tube, prime the injector: Control>Prime P-injector for 20× injections III. Read the Plates • 13. Nluc assay: • Sample vol: 10 μl (dispensed on day 1) • Substrate vol: 25 μl (NanoLight Cat #325)
The SpectraMaxL will do two rounds of reads, the first round will inject substrates, the second round will read entire 384-well plate and make sure the interval between inject and read for each well is exactly the same (in this protocol, the interval is 8 min exactly)

activity in NanoBit complementation αSyn oligomerization assay	Structure (SMILES)	impact relative to 576755 in NanoBit complementation assay
active	CNC(=O)c1cc(O)ccc1N [Compound 576755, 2-amino-5-hydroxy-N-methylbenzamide]	–
active	CNC(=O)c1cc(O)ccc1N(C)C [Compound 581823, 2-dimethylamino-5-hydroxy-N-methylbenzamide]	–
active	CNC(=O)c1cc(O)ccc1NC [Compound 581858, 2-methylamino-5-hydroxy-N-methylbenzamide]	slightly less impact than compound 576755
active	CNC(=O)c1cc(O)ccc1O [Compound 583854, 2,5-dihydroxy-N-methylbenzamide]	–
